SMILES strings stand for the structures.

The target in experiment [1] is human sodium channels Nav 1.7 (Homo sapiens (Human), UniProt Q15858). Nature of the experiment: Automated whole-cell voltage-clamp (ScreenPatch 384P), Nav 1.7 sodium current, Protocol 1. The format is cell-based. As to conditions: Protocol 1 (holding −90 mV, 0.1 Hz); CHO cells expressing human Nav 1.7; room temperature; read-out: Nav1.7 IC50. Here is the method:
(§1) Biological assays were performed on Chinese hamster ovary (CHO) cells expressing the human sodium channels Nav 1.8 and Nav 1.7 stably.
(§2) The experimental voltage-clamp protocol using the whole cell configuration was established on the automated ScreenPatch® 384P platform (SP384PE, Nanion Technologies, Livingston, NJ) and recording of the results was performed with a Nanion 384-well Patch Clamp chip (NPC) (Nanion Technologies, Livingston, NJ).
(§3) Compounds of Formula (I), were diluted in eight concentrations in the extracellular solution composed of physiological saline, buffered with HEPES (mM): NaCl, 137; KCl, 4; CaCl2, 3.8; MgCl2, 1; HEPES, 10; Glucose, 10; pH 7.4. The […], 50; CsF, 90; MgCl2, 5; EGTA, 5; HEPES, 10; pH 7.2. The duration of exposure of each compound with the cells expressing Nav 1.7 or Nav 1.8 was at least five minutes and the assays were performed at room temperature.
(§4) The measurements of the sodium currents of Nav 1.8 and Nav 1.7 were obtained using the voltage protocols described below: • Protocol 1: A holding voltage of −90 mV was established followed by a voltage phase of 200 ms to −120 mV, followed by a voltage step of 10 mV for 1 second for Nav 1.8 or 0 mV for Nav 1.7, followed by a step of −100 mV for 20 ms, followed by a step of 20 ms for 10 mV for Nav 1.8 or 0 mV for Nav 1.7 (TP1A) before returning to the holding voltage of −90 mV. • Protocol 2: A holding voltage of −100 mV was established followed by an inactivation voltage step at −40 mV for 8 seconds, followed by a −100 mV step for […], followed by a 20 ms step for 10 mV for Nav 1.8 or 0 mV for Nav 1.7 (TP1A) before returning to the holding voltage of −100 mV.
(§5) Protocols were repeated at a frequency of 0.1 Hz (Protocol 1) or 0.05 Hz (Protocol 2) and current amplitude was quantified over the TP1A phase log. The variation in the peak amplitude of the current was evaluated according to the Formula described below, after exposure of the cells expressing the channels, at each concentration of the different compounds:
(§6) [formula] • where |TP1A, basal, and |TP1A, molecule represent the entry peaks of sodium currents into TP1A prior to exposure to the compound and in the presence of the compound, respectively.
(§7) The decrease in peak current amplitude, after exposure of the cells to the compounds, was used to calculate the percent relative blocking of the channels relative to the positive control according to the Formula below:
(§8) [formula] • where % V and % CP represent the averages of the values of current inhibition with a vehicle (DMSO) and positive controls, respectively. The sodium currents of the positive control were considered as 100%.
(§9) [formula] • where [Test] represents the concentration of the evaluated molecule, IC50 is the concentration of the compound that generates half of the maximum inhibition, N is the Hill's coefficient and % Block′ is the percentage of the sodium channel current (Nav 1.8 and Nav 1.7) inhibited at each concentration of the evaluated molecule. Data were obtained by non-linear least squares regression with XLfit for Excel (Microsoft, Redmond, WA).
(§10) Compounds were tested in at least one assay to obtain the IC50 value.

Experiment [2] addresses human sodium channels Nav 1.8 (Homo sapiens (Human), UniProt Q9Y5Y9). Nature of the experiment: Automated whole-cell voltage-clamp (ScreenPatch 384P), Nav 1.8 sodium current, Protocol 1. It counts as cell-based. As to conditions: Protocol 1 (holding −90 mV, 0.1 Hz); CHO cells expressing human Nav 1.8; room temperature; read-out: Nav1.8 IC50. How it is done: as §1, §2, §3, §4, §5, §6, §7, §8, §9, §10

Sequence of human sodium channels Nav 1.7 (Q15858 whole entry): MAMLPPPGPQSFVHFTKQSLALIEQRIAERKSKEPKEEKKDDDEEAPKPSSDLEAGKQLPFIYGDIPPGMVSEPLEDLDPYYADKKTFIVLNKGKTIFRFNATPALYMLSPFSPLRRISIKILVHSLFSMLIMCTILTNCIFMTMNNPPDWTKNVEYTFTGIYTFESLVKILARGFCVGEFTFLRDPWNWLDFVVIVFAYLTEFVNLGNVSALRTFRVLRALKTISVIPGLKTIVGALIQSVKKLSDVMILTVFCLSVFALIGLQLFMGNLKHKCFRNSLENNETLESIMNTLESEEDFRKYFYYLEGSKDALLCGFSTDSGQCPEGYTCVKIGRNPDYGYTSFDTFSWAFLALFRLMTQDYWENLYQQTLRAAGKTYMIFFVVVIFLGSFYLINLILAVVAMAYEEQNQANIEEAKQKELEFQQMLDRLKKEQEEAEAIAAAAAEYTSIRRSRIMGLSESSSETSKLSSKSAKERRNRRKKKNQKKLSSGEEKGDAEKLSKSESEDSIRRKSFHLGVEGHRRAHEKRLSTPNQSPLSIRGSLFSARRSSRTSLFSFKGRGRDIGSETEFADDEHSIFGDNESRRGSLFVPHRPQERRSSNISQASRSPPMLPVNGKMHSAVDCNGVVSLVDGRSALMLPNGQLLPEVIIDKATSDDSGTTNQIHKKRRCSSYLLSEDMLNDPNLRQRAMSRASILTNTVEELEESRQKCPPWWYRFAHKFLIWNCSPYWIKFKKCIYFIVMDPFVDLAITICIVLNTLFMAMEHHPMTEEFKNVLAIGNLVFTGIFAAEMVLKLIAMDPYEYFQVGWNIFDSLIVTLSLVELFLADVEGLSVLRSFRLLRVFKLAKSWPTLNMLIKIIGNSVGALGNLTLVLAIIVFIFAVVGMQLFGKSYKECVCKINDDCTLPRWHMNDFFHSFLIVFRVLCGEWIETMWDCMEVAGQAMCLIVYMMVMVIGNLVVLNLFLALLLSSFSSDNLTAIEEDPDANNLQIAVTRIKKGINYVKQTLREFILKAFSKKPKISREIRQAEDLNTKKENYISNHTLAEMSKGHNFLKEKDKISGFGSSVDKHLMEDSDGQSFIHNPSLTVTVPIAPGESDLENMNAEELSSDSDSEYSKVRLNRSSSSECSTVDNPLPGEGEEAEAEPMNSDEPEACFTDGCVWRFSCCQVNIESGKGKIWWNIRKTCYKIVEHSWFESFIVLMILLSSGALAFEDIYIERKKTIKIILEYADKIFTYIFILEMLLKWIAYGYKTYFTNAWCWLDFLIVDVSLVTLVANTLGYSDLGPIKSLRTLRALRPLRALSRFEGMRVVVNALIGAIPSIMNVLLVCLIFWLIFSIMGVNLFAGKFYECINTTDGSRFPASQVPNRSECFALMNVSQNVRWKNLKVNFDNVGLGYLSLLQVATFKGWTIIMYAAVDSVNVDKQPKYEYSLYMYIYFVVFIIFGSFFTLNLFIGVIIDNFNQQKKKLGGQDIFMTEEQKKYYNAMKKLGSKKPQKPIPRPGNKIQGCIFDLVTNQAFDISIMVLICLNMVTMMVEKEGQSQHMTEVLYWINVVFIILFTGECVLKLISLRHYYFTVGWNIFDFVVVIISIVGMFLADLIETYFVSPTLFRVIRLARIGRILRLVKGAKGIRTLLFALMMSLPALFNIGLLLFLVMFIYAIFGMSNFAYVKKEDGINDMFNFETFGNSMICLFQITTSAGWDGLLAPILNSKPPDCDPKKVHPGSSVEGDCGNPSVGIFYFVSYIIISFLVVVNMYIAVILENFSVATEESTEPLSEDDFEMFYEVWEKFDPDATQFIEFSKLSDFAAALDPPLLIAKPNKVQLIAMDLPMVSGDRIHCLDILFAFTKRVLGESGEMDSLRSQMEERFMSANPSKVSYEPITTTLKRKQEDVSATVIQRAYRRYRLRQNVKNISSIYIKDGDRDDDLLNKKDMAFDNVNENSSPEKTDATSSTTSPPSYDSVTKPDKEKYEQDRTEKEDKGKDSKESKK
Sequence of human sodium channels Nav 1.8 (Q9Y5Y9 whole entry): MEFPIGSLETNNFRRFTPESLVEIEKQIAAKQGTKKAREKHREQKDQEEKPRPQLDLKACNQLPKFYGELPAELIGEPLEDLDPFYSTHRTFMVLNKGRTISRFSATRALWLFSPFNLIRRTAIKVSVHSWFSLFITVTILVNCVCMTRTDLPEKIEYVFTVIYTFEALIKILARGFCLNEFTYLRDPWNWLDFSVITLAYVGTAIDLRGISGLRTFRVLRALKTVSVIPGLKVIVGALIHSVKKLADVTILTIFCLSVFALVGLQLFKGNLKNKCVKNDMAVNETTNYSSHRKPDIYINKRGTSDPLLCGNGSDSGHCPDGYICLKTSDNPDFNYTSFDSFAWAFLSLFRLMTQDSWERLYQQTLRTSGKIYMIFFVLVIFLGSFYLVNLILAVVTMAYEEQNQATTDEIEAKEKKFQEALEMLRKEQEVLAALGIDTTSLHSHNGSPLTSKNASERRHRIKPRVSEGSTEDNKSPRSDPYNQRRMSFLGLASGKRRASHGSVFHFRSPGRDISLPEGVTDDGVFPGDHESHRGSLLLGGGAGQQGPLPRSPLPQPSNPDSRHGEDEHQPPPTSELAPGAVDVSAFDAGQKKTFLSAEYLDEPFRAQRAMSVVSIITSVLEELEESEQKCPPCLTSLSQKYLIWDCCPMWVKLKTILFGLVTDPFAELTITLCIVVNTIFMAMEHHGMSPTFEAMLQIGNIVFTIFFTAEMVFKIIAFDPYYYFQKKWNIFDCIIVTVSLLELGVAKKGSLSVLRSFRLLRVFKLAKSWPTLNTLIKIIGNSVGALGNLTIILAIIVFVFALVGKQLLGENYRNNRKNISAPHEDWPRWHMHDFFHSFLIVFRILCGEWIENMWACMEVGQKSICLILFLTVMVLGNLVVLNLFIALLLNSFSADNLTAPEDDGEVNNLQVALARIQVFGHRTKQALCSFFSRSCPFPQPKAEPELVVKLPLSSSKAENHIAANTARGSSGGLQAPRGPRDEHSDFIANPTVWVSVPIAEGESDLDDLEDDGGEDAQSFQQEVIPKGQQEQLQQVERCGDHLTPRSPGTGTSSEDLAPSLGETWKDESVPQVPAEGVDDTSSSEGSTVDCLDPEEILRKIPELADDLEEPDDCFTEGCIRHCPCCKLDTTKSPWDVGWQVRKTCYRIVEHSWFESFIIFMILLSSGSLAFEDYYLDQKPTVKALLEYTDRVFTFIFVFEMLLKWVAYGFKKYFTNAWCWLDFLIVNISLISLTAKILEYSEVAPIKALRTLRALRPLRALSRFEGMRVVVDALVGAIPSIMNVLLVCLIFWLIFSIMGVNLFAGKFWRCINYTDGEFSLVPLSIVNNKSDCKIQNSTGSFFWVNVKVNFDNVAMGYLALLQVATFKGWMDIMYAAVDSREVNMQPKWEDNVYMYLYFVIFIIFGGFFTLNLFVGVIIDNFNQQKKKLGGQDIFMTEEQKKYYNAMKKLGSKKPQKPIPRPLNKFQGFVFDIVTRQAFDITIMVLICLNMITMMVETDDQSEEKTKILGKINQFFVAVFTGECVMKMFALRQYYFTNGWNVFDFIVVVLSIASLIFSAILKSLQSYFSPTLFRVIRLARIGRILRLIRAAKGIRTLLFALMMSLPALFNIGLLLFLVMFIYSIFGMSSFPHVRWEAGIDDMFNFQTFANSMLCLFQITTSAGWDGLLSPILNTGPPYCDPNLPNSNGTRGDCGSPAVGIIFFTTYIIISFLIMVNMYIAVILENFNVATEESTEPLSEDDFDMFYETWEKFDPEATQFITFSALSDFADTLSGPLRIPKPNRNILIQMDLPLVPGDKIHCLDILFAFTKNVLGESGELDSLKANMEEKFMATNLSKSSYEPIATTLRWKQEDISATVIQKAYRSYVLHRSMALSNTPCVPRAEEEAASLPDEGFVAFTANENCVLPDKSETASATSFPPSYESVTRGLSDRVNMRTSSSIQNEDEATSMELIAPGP

With `CCCOc1ccc(-c2cc(C(=O)N/N=C/c3cc(OC)cc(OC)c3)ccn2)cc1` [Compound 30, (E)-N′-(3,5-dimethoxybenzylidene)-2-(4-propoxyphenyl) isonicotinohydrazide], the IC50 in experiment [1] and in experiment [2] was greater than 10 µM each time.

Turning to `CCOc1ccc(-c2cccc(C(=O)N/N=C/c3ccccc3F)n2)cc1` [Compound 32, (E)-6-(4-ethoxyphenyl)-N′-(2-fluorobenzylidene) picolinohydrazide], the 50% inhibitory concentration (IC50) is 1.04 µM in experiment [1] and 1.36 µM in experiment [2].

Take `CCOc1ccc(-c2cccc(C(=O)N/N=C/c3ccccc3Cl)n2)cc1` [Compound 33, (E)-N′-(2-chlorobenzylidene)-6-(4-ethoxyphenyl) picolinohydrazide]: the IC50 in experiment [1] and in experiment [2] was greater than 10 µM throughout.

As for `CCOc1ccc(-c2cccc(C(=O)N/N=C/c3c(Cl)cccc3Cl)n2)cc1` [Compound 34, (E)-N′-(2,6-dichlorobenzylidene)-6-(4-ethoxyphenyl) picolinohydrazide], the IC50 in experiment [1] and in experiment [2] was greater than 10 µM each time.

Regarding `CCOc1ccc(-c2cccc(C(=O)N/N=C/c3c(F)cccc3Cl)n2)cc1` [Compound 35, (E)-N′-(2-chloro-6-fluorobenzylidene)-6-(4-ethoxyphenyl) picolinohydrazide], the 50% inhibitory concentration (IC50) in experiment [1] and in experiment [2] was greater than 10 µM in each case.

With `CCOc1ccc(-c2cccc(C(=O)N/N=C/c3ccccc3OC)n2)cc1` [Compound 36, (E)-6-(4-ethoxyphenyl)-N′-(2-methoxybenzylidene) picolinohydrazide], the values for the 50% inhibitory concentration (IC50) in experiment [1] and in experiment [2] were 7.06 µM and 8.43 µM, respectively.

For the compound `CCOc1ccc(-c2cccc(C(=O)N/N=C/c3cccnc3N3CCOCC3)n2)cc1` [Compound 37, (E)-6-(4-ethoxyphenyl)-N′-((2-morpholinopyridin-3-yl)methylene) picolinohydrazide], the IC50 in experiment [1] is 8.76 µM; in experiment [2], greater than 10 µM.

Take `COc1cc(/C=N/NC(=O)c2cc(-c3ccc(Cl)cc3)ccn2)cc(OC)c1` [Compound 42, (E)-4-(4-chlorophenyl)-N′-(3,5-dimethoxybenzylidene) picolinohydrazide]: the half-inhibitory concentration (IC50) in experiment [1] and in experiment [2] was greater than 10 µM throughout.

In the case of `O=C(N/N=C/c1cccs1)c1cc(-c2ccc(Cl)cc2)ccn1` [Compound 43, (E)-4-(4-chlorophenyl)-N′-(thiophen-2-ylmethylene) picolinohydrazide], the half-maximal inhibitory concentration (IC50) in experiment [1] and in experiment [2] was greater than 10 µM throughout.

With `CCOc1ccc(-c2ccnc(C(=O)N/N=C/c3cc(OC)cc(OC)c3)c2)cc1` [Compound 44, (E)-N′-(3,5-dimethoxybenzylidene)-4-(4-ethoxyphenyl) picolinohydrazide], the IC50 in experiment [1] and in experiment [2] was greater than 10 µM in each case.

`CCOc1ccc(-c2ccnc(C(=O)N/N=C/c3cccs3)c2)cc1` [Compound 45, (E)-4-(4-ethoxyphenyl)-N′-(thiophen-2-ylmethylene) picolinohydrazide]: the 50% inhibitory concentration (IC50) in experiment [1] and in experiment [2] was greater than 10 µM each time.

For the compound `COc1cc(/C=N/NC(=O)c2cc(-c3ccc(OC(C)C)cc3)ccn2)cc(OC)c1` [Compound 46, (E)-N′-(3,5-dimethoxybenzylidene)-4-(4-isopropoxyphenyl) picolinohydrazide], the IC50 in experiment [1] and in experiment [2] was greater than 10 µM each time.

Regarding `CC(C)Oc1ccc(-c2ccnc(C(=O)N/N=C/c3cccs3)c2)cc1` [Compound 47, (E)-4-(4-isopropoxyphenyl)-N′-(thiophen-2-ylmethylene) picolinohydrazide], the concentration for half-maximal inhibition (IC50) in experiment [1] and in experiment [2] was greater than 10 µM throughout.

For the compound `COc1cc(/C=N/NC(=O)c2cc(-c3ccc(OC4CCCC4)cc3)ccn2)cc(OC)c1` [Compound 48, (E)-4-(4-(cyclopentyloxy)phenyl)-N′-(3,5-dimethoxybenzylidene) picolinohydrazide], the IC50 in experiment [1] and in experiment [2] was greater than 10 µM each time.

Regarding `COc1cc(/C=N/NC(=O)c2cc(-c3ccc(OC(F)(F)F)cc3)ccn2)cc(OC)c1` [Compound 49, (E)-N′-(3,5-dimethoxybenzylidene)-4-(4-(trifluoromethoxy)phenyl) picolinohydrazide], the IC50 in experiment [1] and in experiment [2] was greater than 10 µM throughout.

On to `O=C(N/N=C/c1cccs1)c1cc(-c2ccc(OC3CCCC3)cc2)ccn1` [Compound 50, (E)-4-(4-(cyclopentyloxy)phenyl)-N′-(thiophen-2-ylmethylene) picolinohydrazide], for which the half-inhibitory concentration (IC50) in experiment [1] and in experiment [2] was greater than 10 µM each time.

In the case of `O=C(N/N=C/c1cccs1)c1cc(-c2ccc(OC(F)(F)F)cc2)ccn1` [Compound 51, (E)-N′-(thiophen-2-ylmethylene)-4-(4-(trifluoromethoxy)phenyl) picolinohydrazide], the IC50 in experiment [1] and in experiment [2] was greater than 10 µM throughout.

As for `COc1cc(/C=N/NC(=O)c2ccnc(-c3ccc(Cl)cc3)n2)cc(OC)c1` [Compound 52, (E)-2-(4-chlorophenyl)-N′-(3,5-dimethoxybenzylidene)pyrimidine-4-carbohydrazide], the IC50 in experiment [1] and in experiment [2] was greater than 10 µM each time.

Turning to `CCOc1ccc(-c2nccc(C(=O)N/N=C/c3cc(OC)cc(OC)c3)n2)cc1` [Compound 53, (E)-N′-(3,5-dimethoxybenzylidene)-2-(4-ethoxyphenyl)pyrimidine-4-carbohydrazide], the half-maximal inhibitory concentration (IC50) in experiment [1] and in experiment [2] was greater than 10 µM throughout.

`COc1cc(/C=N/NC(=O)c2ccnc(-c3ccc(OC4CCCC4)cc3)n2)cc(OC)c1` [Compound 55, (E)-2-(4-(cyclopentyloxy)phenyl)-N′-(3,5-dimethoxybenzylidene)pyrimidine-4-carbohydrazide]: the 50% inhibitory concentration (IC50) in experiment [1] and in experiment [2] was greater than 10 µM throughout.

Regarding `COc1cc(/C=N/NC(=O)c2ccnc(-c3ccc(OC(F)(F)F)cc3)n2)cc(OC)c1` [Compound 56, (E)-N′-(3,5-dimethoxybenzylidene)-2-(4-(trifluoromethoxy)phenyl) pyrimidine-4-carbohydrazide], the IC50 in experiment [1] and in experiment [2] was greater than 10 µM throughout.

Regarding `COc1ccc(-c2nccc(C(=O)N/N=C/c3cc(OC)cc(OC)c3)n2)cc1` [Compound 57, (E)-N′-(3,5-dimethoxybenzylidene)-2-(4-methoxyphenyl)pyrimidine-4-carbohydrazide], the IC50 in experiment [1] and in experiment [2] was greater than 10 µM in each case.

Consider `CCCOc1ccc(-c2nccc(C(=O)N/N=C/c3cc(OC)cc(OC)c3)n2)cc1` [Compound 58, (E)-N′-(3,5-dimethoxybenzylidene)-2-(4-propoxyphenyl)pyrimidine-4-carbohydrazide], for which the half-inhibitory concentration (IC50) in experiment [1] and in experiment [2] was greater than 10 µM each time.

As for `CCCCOc1ccc(-c2nccc(C(=O)N/N=C/c3cc(OC)cc(OC)c3)n2)cc1` [Compound 59, (E)-2-(4-butoxyphenyl)-N′-(3,5-dimethoxybenzylidene)pyrimidine-4-carbohydrazide], the half-maximal inhibitory concentration (IC50) in experiment [1] and in experiment [2] was greater than 10 µM each time.

With `CCCCOc1ccc(-c2ccnc(C(=O)N/N=C/c3cc(OC)cc(OC)c3)n2)cc1` [Compound 67, (E)-4-(4-butoxyphenyl)-N′-(3,5-dimethoxybenzylidene)pyrimidine-2-carbohydrazide], the IC50 in experiment [1] and in experiment [2] was greater than 10 µM in each case.

For the compound `COc1cc(/C=N/N(C)C(=O)c2ccc(-c3ccc(Cl)cc3)o2)cc(OC)c1` [Compound 78, (E)-5-(4-chlorophenyl)-N′-(3,5-dimethoxybenzylidene)-N′-methylfuran-2-carbohydrazide], the concentration for half-maximal inhibition (IC50) in experiment [1] and in experiment [2] was greater than 30 µM throughout.

The record behind these values is patent US20240335420A1, “N-ACYLHYDRAZONE COMPOUNDS CAPABLE OF INHIBITING NAV 1.7 AND/OR NAV 1.8, PROCESSES FOR THE PREPARATION THEREOF, COMPOSITIONS, USES, METHODS FOR TREATMENT USING SAME AND KITS” (EUROFARMA LABORATÓRIOS S.A., priority 2021, published 2024).
